Data published in patent US8962263B2, “Methods and compositions for detecting the activation state of multiple proteins in single cells” (The Board of Trustees of the Leland Stanford Junior …, priority 2001, dated 2015).

Experiments:
Jurkat T cells = test: anti-Fas induced apoptosis in ICAM-2 crosslinked Jurkat cells, annexin-V binding assay; type: cell-based, human; conditions: inhibitor 10 μM 1 hour, anti-Fas 50 ng/ml 8 hours
Description: A) ICAM-2, crosslinking induced AKT activity in Jurkat T cells and subsequent phosphorylation of GSK3, FKHR, and AFX as a function of time. Serum starved Jurkat T cells were incubated with either isotype control or anti-human ICAM-2, (10, μg/ml) for the indicated times. AKT kinase activity was determined as described. Immunoblot analysis verified AKT dual phosphorylation, FKHR and GSK3 phosphorylation, and BAD phosphorylation as a function of ICAM-2, crosslinking. B) ICAM-2 crosslinking induces AKT activity in BaF3, pre-B cells. […] ICAM-2, was crosslinked on 106, Jurkat T cells using an ICAM-2, mAb (10, μg/ml) 30, minutes prior to treatment with staurosporine (+) or DMSO vehicle (−). Apoptosis was determined by flow cytometry using annexin-V binding assay. […] Cells were assessed for apoptosis by annexin-V binding assay. […]
Apoptosis was determined either by counting pyknotic nuclei, annexin-V binding by flow cytometry, or TUNEL BrdU staining by flow cytometry as indicated. Apoptosis was induced either by staurosporine (1 μm), treatment with anti-mouse Fas (5 μq/ml Santa Cruz Biotechnology (SCB), anti-human Fas ([…]) as indicated in appropriate experiment, IL-3 withdrawal-(24 hrs) or as indicated. For pyknolic nuclei count, NIH3T3 cells were grown on glass coverslips and assayed for apoptosis. Suspension cells were analyzed by nuclear staining with 25 μM acridine orange/25 μm ethidium bromide or 5 μg/ml Hoechst 33342 (Molecular Probes, Eugene, Oreg.). Apoptosis was identified by the presence of characteristic pyknotic nuclei as described (Jacobson and Raff, 1995). At least 5 individual fields were photographed and counted using a Zeiss axioscope fluorescence microscope. […] The cells were trypsinized and viable cells counted following trypan blue staining. Untreated cells were counted at the time of treatment. % survival represents (number of viable cells post-treatment)/(number of viable cells pretreatment). […] Flow cytometry analysis was performed on a BD FACSCalibur machine with CELLQuest and analyzed using FlowJo software (Tree Star).

p44/42 MAPK = test: intracellular phospho-p44/42 MAPK by flow cytometry in ICAM-2 treated Jurkat cells; type: cell-based, human; conditions: chemical agents 10 μM, EDTA 1 mM; mAbs titrated prior to ICAM-2
Source text: A) Mean fluorescent intensity values (MFI) of ICAM-2-FITC (adhesion) and mAb24-Alexa633, (LFA-1, activation) in treated Jurkat cells (as above). Control unstimulated and/or compound pretreated values were subtracted. B) Top panel: Intracellular phospho-p44/42, MAPK detection as a function of ICAM-2, dose in Jurkat cells by flow cytometry (see Material and Methods). Mean fluorescent intensity values (MFI) were plotted±standard deviation (SD). Bottom panel: ICAM-2, treated Jurkat cells were stained for intracellular phospho-p44/42, MAPK as described above. mAbs to β2, and αL, integrins (10, μg/ml, 10, minutes) were titrated prior to ICAM-2, treatment as indicated and plotted for MFI±SD. C) ICAM-2, induced p44/42, MAPK activity is blocked by β2, and αL, integrin antibodies as determined by a p44/42 MAPK kinase assay. Conditions for induction and inhibition are as described above. Recombinant active p44/42, MAPK served as an internal positive control (denoted by “+”). D) Inhibition and activation profile for intracellular phospho-p44/42, by flow cytometry in the presences of chemical agents (10, μM), EDTA (1, mM), or PMA, ionomycin and ICAM-2, stimulus (as indicated above). MFI values±SD are plotted.
(§1) Intracellular and extracellular staining was performed as described (Perez and Nolan, 2002). Intracellular probes for active kinases were made by conjugating phospho-specific antibodies to the ALEXA FLUOR® dye series as described and used in phospho-protein optimized conditions (Perez and Nolan, 2002). Kinetic analyses was performed by direct application of fixation buffer in time synchronized 96-wells maintained at 37° C. Intracellular actin and microtubule staining was performed using phalloidin-Alexa633 and taxol-Alexa546 dyes (Molecular Probes). Adhesion and clustering assays were performed using ICAM-2-FITC as described in text. LFA-1 activation was assessed by either mAb24-Alexa633 or mAb24-Alexa546 conjugate, surface stained at 37° C. Flow cytometry data are representative of 3 independent experiments of 10^6 cells/sample. 10-50,000 events were collected and manually calibrated on a FACSCalibur™ machine. Data plotted in bar graph format is expressed as geometric mean fluorescence intensity (MFI) and normalized for isotype controls. Log ratios are defined as the MFI of stimulus to the MFI of unstimulated cells. Data was analyzed using Flowjo™ software (Treestar).

ezrin = test: phosphotyrosine-protein based elisa for ezrin tyrosine phosphorylation upon ICAM-2 ligation; type: cell-based, human; conditions: Jurkat cells
Description: A) Expression levels of ICAM-2, vary across cell lines of different origins. Quantitative flow cytometry analysis was performed to assess the number of ICAM-2 surface molecules across transformed and untransformed fibroblasts, lymphocytes of T-cell and different B-cell differentiation states and myeloid lineages (see Material and Methods for elaboration). The number of surface molecules/cell is expressed as the mean (bar)+/−SD of triplicate experiments. B) Crosslinking of endogenous ICAM-2, induces ezrin tyrosine phosphorylation and enhanced ICAM-2, interaction. Jurkat cells were crosslinked for ICAM-2 using monoclonal antibody for the indicated times and subjected to immunoprecipitation/immunoblotting as indicated. C) Inhibition of ezrin phosphotyrosine by chemical inhibitors of src and Rho-dependent kinases. D) Ezrin phosphorylation and enhanced interaction with the p85, subunit of PI3K as a function of ICAM-2. Determined as described above. E) PDK-1, activity as a function of ICAM-2, ligation, as described above). F) PI3K and AKT localize to the membrane as a function of ICAM-2, ligation. Membrane/cytosolic fractionation was performed on ICAM-2, ligated Jurkat cells as a function of time and subjected to immunoblotting for PI3K and AKT.
In order to identify upstream kineses capable of tyrosine phosphorylating ezrin as a function of ICAM-2 ligation, we developed a phosphotyrosine-protein based elisa to screen for the inhibition of ezrin tyrosine phosphorylation in vivo by various known inhibitors of protein kineses (Perez and Nolan, manuscript in preparation). […] Given the design of the screen to detect tyrosine residue phosphorylation, we speculate that activation of Rho-dependent processes may be a prerequisite for ezrin to be tyrosine phosphorylated by src (elaborated below).

cell surface LFA-1 = target: T1, cell surface LFA-1 (Homo sapiens, UniProt P20701); test: ICAM-2-FITC surface binding on Jurkat cells by flow cytometry (single cell binding measurements); conditions: cytochalisin D treated Jurkat cells
T1 construct: within the physiological context of cell surface LFA-1; endogenous in cells; host or cells: Jurkat T cells
T1 sequence (P20701 26-1170): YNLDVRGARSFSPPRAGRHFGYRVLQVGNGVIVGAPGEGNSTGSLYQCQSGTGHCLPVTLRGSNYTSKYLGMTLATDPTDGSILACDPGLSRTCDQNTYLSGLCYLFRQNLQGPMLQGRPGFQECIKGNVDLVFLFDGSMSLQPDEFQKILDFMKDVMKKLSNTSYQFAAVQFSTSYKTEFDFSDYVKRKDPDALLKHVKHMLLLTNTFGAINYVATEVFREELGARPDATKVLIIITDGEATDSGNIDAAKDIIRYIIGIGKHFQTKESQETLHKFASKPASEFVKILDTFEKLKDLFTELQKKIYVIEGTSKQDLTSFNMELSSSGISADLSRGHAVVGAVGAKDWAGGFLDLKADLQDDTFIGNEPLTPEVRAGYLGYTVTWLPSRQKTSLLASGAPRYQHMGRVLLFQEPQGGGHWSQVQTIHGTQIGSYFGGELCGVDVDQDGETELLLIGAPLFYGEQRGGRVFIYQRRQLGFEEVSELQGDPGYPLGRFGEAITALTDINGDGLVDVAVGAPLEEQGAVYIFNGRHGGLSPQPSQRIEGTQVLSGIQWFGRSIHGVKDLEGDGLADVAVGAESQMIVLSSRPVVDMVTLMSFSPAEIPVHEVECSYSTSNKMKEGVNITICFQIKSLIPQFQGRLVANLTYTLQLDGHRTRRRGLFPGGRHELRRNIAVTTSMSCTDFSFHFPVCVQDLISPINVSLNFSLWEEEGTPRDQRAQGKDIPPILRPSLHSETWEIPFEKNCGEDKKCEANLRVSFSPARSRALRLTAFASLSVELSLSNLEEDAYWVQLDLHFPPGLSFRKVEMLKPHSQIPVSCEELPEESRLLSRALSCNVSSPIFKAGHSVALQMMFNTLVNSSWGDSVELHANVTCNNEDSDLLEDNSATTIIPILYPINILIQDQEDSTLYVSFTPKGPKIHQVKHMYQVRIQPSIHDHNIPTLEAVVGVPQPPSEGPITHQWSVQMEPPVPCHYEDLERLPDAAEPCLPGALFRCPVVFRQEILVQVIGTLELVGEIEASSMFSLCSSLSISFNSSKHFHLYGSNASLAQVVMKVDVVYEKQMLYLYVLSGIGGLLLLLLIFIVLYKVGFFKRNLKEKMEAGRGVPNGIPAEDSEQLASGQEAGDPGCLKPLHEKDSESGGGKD
T1 sequence (P05107 23-769 partner): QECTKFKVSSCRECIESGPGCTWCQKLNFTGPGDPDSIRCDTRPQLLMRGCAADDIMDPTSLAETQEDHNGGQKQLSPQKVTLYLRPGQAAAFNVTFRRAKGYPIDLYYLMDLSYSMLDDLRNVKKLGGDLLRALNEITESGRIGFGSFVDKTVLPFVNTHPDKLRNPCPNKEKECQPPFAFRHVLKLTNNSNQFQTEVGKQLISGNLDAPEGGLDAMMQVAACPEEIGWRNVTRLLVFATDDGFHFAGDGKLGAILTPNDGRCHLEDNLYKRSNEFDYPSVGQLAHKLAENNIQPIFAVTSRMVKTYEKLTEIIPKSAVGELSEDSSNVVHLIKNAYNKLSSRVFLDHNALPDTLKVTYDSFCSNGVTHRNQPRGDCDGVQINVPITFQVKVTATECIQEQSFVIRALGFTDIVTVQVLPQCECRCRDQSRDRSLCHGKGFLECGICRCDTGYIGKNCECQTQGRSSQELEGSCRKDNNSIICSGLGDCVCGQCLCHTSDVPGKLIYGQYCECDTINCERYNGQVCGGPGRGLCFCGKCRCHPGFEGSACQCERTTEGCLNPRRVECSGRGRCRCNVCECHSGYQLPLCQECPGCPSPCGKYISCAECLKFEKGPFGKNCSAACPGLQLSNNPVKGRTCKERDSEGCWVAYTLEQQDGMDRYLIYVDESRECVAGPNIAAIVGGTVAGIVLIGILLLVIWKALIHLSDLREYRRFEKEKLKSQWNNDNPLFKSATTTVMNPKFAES
Description: A) Purified human ICAM-2, from retrovirally transduced NIH3T3, (see materials and methods) was tested for purity, size, and aggregate formation by native gel electrophoresis and gel filtration. Analysis of purified ICAM-2, from two different preps and ICAM2-FC from NSO cells. Molecular weight was calculated using relative distance migration from a molecular weight standard. Concentration was determined using serial dilutions of BSA as a standard. […] B) ICAM-2, ligand binding to cell surface as a function of time. 5×10^6, unstimulated and PMA stimulated (1, μg/ml, 30, min) Jurkat T cells were incubated with ICAM-2-FITC or LFA-1-FITC antibody (1, μg/ml) and subjected to time dependent flow cytometry. Mean fluorescence intensity was plotted per time of a gated homogenous cell population. Flow rate was maintained at 200-300, cells/second, with fluorescence intensity values acquired at 10, millisecond intervals for 1200, seconds. C) Flow cytometric analysis of ICAM-2-FITC and a-LFA-1-FITC surface binding on cytochalisin D treated (10, μM, 30, min) Jurkat cells at 37° C. and 4° C. D) Curve fit analysis of ICAM-2-FITC binding per 10^4, cells. Jurkat cells were incubated with ICAM-2-FITC at 37° C. for 30, min at indicated concentrations in 50, μL volume. Cells were washed 1×, and analyzed for mean fluorescent intensity (MFI) of 10^4, cells. Percent ICAM-2-FITC bound was calculated from the following equation: 100×[(MFI[×]−MFIunstained)/(MFI[saturated]−MFIunstained)] where [×]=ICAM-2-FITC concentration and [saturated]=concentration that saturated binding. Values were fit to the equation Y=m1*M0/(m2+M0) (see materials and methods).
Full length ICAM2 cDNA was obtained from Jurkat cells and cloned into retroviral vector PBM-Z-IN at the BamHI/Sal1 site as described (Perez et al., 2002). Human ICAM-2 was overexpressed in NIH3T3 cells by retroviral infection and harvested by immunoaffinity chromatography. ICAM-2 was affinity purified using a two step lysing procedure and subsequent purification on an anti-ICAM-2 solid support. […] Batch lysate of harvested supernatant was performed (4° C., for 2 hrs), and washed 4 times in buffer C (0.1% Tween-20, PBS pH 7.4). ICAM-2 protein was eluted by 4.5 M NaCl (in Tris pH 6.8), dialyzed overnight (in PBS pH 7.4, 0.001% azide, 0.01% glycerol, 4° C.), concentrated using size exclusion spin chromatography and stabilized using 0.01% glycerol. Anti-ICAM-2 solid support was re-equilibrated in buffer C, stored in 0.001% thimerosol and re-used up to 3 times. Purity was >98% as assessed by coomasie gel. […] Gel imaging was performed on a VersaDoc machine (Biorad) and analyzed using Quantity One quantitation software (Biorad). […]

LFA-1 = LFA-1 activation by mAb24-Alexa633 staining, flow cytometry; type: cell-based, human; conditions: Jurkat cells; agents 10 μM 30 min, PMA 1 μg/ml, prior to ICAM-2 10 μg/ml 30 min
Description: A) Confocal microscopy of actin and microtubule architecture upon ICAM-2, stimulus (10, μg/ml, 30, min) in Jurkat cells. Actin was stained by phalloidin-alexa633, and tubulin by taxol-alexa546. Inserts display enlarged cell image of representative treatment B) Flow cytometric staining for actin and microtubules as described above. C) Left: Fluorescence topography analysis of ICAM-2-FITC (1 μg/ml, time as indicated) surface distribution. Intensity color gradient depicts high and low fluorescent intensity values. Right: Confocal microscopy of ICAM-2-FITC surface binding (10 μg/ml, 30, min) and anti-β2-alexa568, (clone CTB104). D) Staining for ICAM-2-FITC surface binding (fluorescence intensity) and surface distribution (fluorescence pulse) in cytochalisin D treated Jurkat cells at 37° C. and 4° C. by flow cytometry. E) Values for ICAM-2-FITC fluorescence intensity per time-of-flight per cell as described in text. F) Flow cytometric staining for LFA-1 activation by mAb24-alexa633. Stimuli as indicated (10, μM, 30, min), PMA (1, μg/ml) prior to ICAM-2, stimulation (10, μg/ml, 30, min). Staining was performed at 37° C. G) Mean fluorescence intensity (MFI) values of mAb24-633, and ICAM-2, cluster values, computed as described above, as a function of time.
as §1

Description for CD19+ human B cells: Apoptosis was measured by annexin-V binding detected by flow cytometry, and gated for CD19+, cells. […] Apoptosis was measured by annexin-V binding assay.
Antibody cross-linking experiments were performed using mAbs to anti-ICAM-1, anti-ICAM-2, anti-ICAM-3, anti-CD43, or anti-CD44 that recognizes the N-terminal region (extracellular domain) at 10 μg/ml. Spin dialysis (Biorad) was used for buffer exchange of azide containing antibodies (0.01%) to phosphate buffered saline buffer pH 7.4. Anti-mouse IgG (Sigma) was used as a control antibody in cross-linking experiments. 1×10^6 Jurkat, 1×10^6 BaF3, or 1×10^7 PBMC cells were serum starved for 4 hours respectively (except PBMC). Cells were incubated with either mAb (10 μg/ml) or mouse IgG (10 μg/ml) at 37° C. for the indicated time. Time points began post serum starvation to attenuate most of the signaling pathways or as indicated. […] Cells extracts were taken and subjected to either immunoprecipitation or immunoblotting were appropriate. Primary cells were subjected to apoptotic treatment followed by preparation for flow cytometry. GTPγS was made cell permeant by pre-incubating compound with Fugene (Roche Biochemicals) in a 1:4 molar ratio for 30 minutes at 25° C. prior to being applied to cells.

Compound	ICAM-2 crosslinking protection against Fas induced apoptosis (Jurkat T cells)	apoptosis in primary cells on incubation with compound (CD19+ human B cells)	effect on ICAM-2 induced p44/42 MAPK phosphorylation (p44/42 MAPK)	tyrosine phosphorylation of ezrin (ezrin)	LFA-1 receptor clustering and ICAM-2 binding (cell surface LFA-1)	LFA-1 activation (mAb24 binding) (LFA-1)
Nc1nc2c(ncn2[C@@H]2O[C@H](COP(=O)(O)OP(=O)(O)OP(O)(O)=S)[C@@H](O)[C@H]2O)c(=O)[nH]1 [GTPγS]	abrogated	induced apoptosis	–	–	–	–
CO[C@H]1[C@@H](OC)C[C@H](C)[C@@H](OC)C2=CC(=O)C=C(NC(=O)/C(C)=C/C=C\[C@H](OC)[C@@H](OC(N)=O)/C(C)=C/[C@@H]1C)C2=O [herbimycin A]	abrogated	induced apoptosis	no effect	inhibit tyrosine phosphorylation of ezrin	–	–
cytochalisin D	–	–	diminished	–	enhanced LFA-1 receptor clustering and subsequent ICAM-2 binding	attenuated
